Test [1] concerns Staph. aur. 5. Nature of the test: MIC, serial dilution on BHI agar (inocula replicating device). In kind it is cell-based. To be noted: 18 hrs. at 37° C., read-out: Minimum Inhibitory Concentration (MIC). The method, then: (§1) The procedure which is followed is the one recommended by the International Collaborative Study on Antibiotic Sensitivity Testing [Ericcson and Sherris, Acta. Pathologica et Microbiologia Scandinav, Supp. 217, Sections A and B: 64-68 (1971)], and employs brain heart infusion (BHI) agar and the inocula replicating device. Overnight growth tubes are diluted 100 fold for use as the standard inoculum (20,000-10,000 cells in approximately 0.002 ml. are placed on the agar surface; 20 ml. of BHI agar/dish). Twelve 2 fold dilutions of the test compound are employed, with initial concentration of the test drug being 200 mcg./ml. Single colonies are disregarded when reading plates after 18 hrs. at 37° C. The susceptibility (MIC) of the test organism is accepted as the lowest concentration of compound capable of producing complete inhibition of growth as judged by the naked eye. A comparison of the activity of 3"-epioleandomycin-Y 3",4"-carbonate and 4"-epioleandomycin-Y 3",4"-carbonate with that of parent oleandomycin-Y is recorded in the Table.

Test [2] relates to Strep. pneum. 2. The test is described as above. The format is cell-based. To be noted: 18 hrs. at 37° C., read-out: Minimum Inhibitory Concentration (MIC). The method, then: as §1
For test [3], the system named is Strep. faec. 6. Described as above. The format is cell-based. To be noted: 18 hrs. at 37° C., read-out: Minimum Inhibitory Concentration (MIC). The method, then:
as §1

The test system of test [4] is Staph. aur. 400. The description is as above. The format is cell-based. To be noted: 18 hrs. at 37° C., read-out: Minimum Inhibitory Concentration (MIC). The procedure:
as §1

Test [5] relates to Strep. pyog. 203. Described as above. To be noted: 18 hrs. at 37° C., read-out: Minimum Inhibitory Concentration (MIC). The format is cell-based. The method, then: as §1
The test system of test [6] is Staph. aur. 52. Described as above. The format is cell-based. To be noted: 18 hrs. at 37° C., read-out: Minimum Inhibitory Concentration (MIC). The procedure:
as §1

Test [7] relates to Staph. epi. 111. The description is as above. To be noted: 18 hrs. at 37° C., read-out: Minimum Inhibitory Concentration (MIC). The format is cell-based. The method, then: as §1
Test [8] relates to Bac. sub. 1. The test is described as above. In kind it is cell-based. To be noted: 18 hrs. at 37° C., read-out: Minimum Inhibitory Concentration (MIC). The procedure:
as §1

Test [9] deals with Past. mult. The description is as above. The format is cell-based. To be noted: 18 hrs. at 37° C., read-out: Minimum Inhibitory Concentration (MIC). The procedure:
as §1

Test [10] concerns bacteria. To be noted: background statement on the byproduct; cited from earlier work.

SMILES strings stand for the structures. Values after ≈ are worked out from the molar mass of the structure shown.

For `C[C@@H]1[C@@H](O[C@@H]2O[C@H](C)C[C@H](N(C)C)[C@H]2O)[C@@H](C)C[C@@]2(CO2)C(=O)[C@H](C)[C@@H](O)[C@@H](C)[C@@H](C)OC(=O)[C@H](C)[C@H]1O[C@H]1C[C@@H]2OC(=O)O[C@@H]2[C@H](C)O1` [IIb, 4"-epioleandomycin-Y 3",4"-carbonate], the MIC in test [1] is 12.5 µg/mL (≈ 17.9 µM); in test [2], 0.78 µg/mL (≈ 1.11 µM); in [3], 12.5 µg/mL (≈ 17.9 µM); in test [4], 12.5 µg/mL (≈ 17.9 µM); in test [5], 3.12 µg/mL (≈ 4.46 µM); in [6] it was 12.5 µg/mL (≈ 17.9 µM). Moreover, the MIC in [7] worked out at 6.25 µg/mL (≈ 8.93 µM); in [8], 3.12 µg/mL (≈ 4.46 µM).

Regarding `C[C@@H]1[C@@H](O[C@@H]2O[C@H](C)C[C@H](N(C)C)[C@H]2O)[C@@H](C)C[C@@]2(CO2)C(=O)[C@H](C)[C@@H](O)[C@@H](C)[C@@H](C)OC(=O)[C@H](C)[C@H]1O[C@H]1C[C@H]2OC(=O)O[C@H]2[C@H](C)O1` [IIa, 3"-epioleandomycin-Y 3",4"-carbonate], the MIC was found to be 50 µg/mL (≈ 71.4 µM) in [9]; 3.12 µg/mL (≈ 4.46 µM) in [1]; 0.39 µg/mL (≈ 0.557 µM) in [2]; 3.12 µg/mL (≈ 4.46 µM) in test [3]; 6.25 µg/mL (≈ 8.93 µM) in [4]; 3.12 µg/mL (≈ 4.46 µM) in test [5]. Further, the MIC in test [6] came to 3.12 µg/mL (≈ 4.46 µM); in test [7], 1.56 µg/mL (≈ 2.23 µM); in test [8], 0.78 µg/mL (≈ 1.11 µM).

Take `C[C@@H]1[C@@H](O[C@@H]2O[C@H](C)C[C@H](N(C)C)[C@H]2O)[C@@H](C)C[C@@]2(CO2)C(=O)[C@H](C)[C@@H](O)[C@@H](C)[C@@H](C)OC(=O)[C@H](C)[C@H]1O[C@H]1C[C@H](O)[C@@H](O)[C@H](C)O1` [I, O-demethyloleandomycin]: the “antibacterial activity (in words)” value in test [10] was “relatively low antibacterial activity”. The MIC in test [1] was determined as 50 µg/mL (≈ 74.2 µM); in test [2], 0.78 µg/mL (≈ 1.16 µM); in [3] it was 6.25 µg/mL (≈ 9.28 µM); in test [4], 12.5 µg/mL (≈ 18.6 µM); in test [5] it was 1.56 µg/mL (≈ 2.32 µM); in test [6] it was 50 µg/mL (≈ 74.2 µM). Further, the MIC in test [7] and in test [8] was 6.25 µg/mL (≈ 9.28 µM) in each case.

(Values after US4316010A, “Cis-C3 "C4 "-carbonate derivatives of O-demethyloleandomycin and intermediates therefor” (Pfizer Inc., priority 1981, dated 1982).)
